Data taken from patent US20220211037A1, “BIOSENSORS FOR DROUGHT STRESS IN PLANTS” (The Regents of the University of California, priority 2019, published 2022).
Read-outs that look alike come from different tables or passages of the source.

How the values were obtained:
PYL3-Cy5.5 homodimers [1] = target: T1, PYL3-Cy5.5 homodimers (Arabidopsis thaliana, UniProt Q9SSM7); test: Fluorescence of PYL3-Cy5.5 as a function of ABA concentration (self-quenching); format: biochemical
T1 construct: made in house; host or cells: E. coli BL21[DE3], pET28
T1 sequence (Q9SSM7 1-209): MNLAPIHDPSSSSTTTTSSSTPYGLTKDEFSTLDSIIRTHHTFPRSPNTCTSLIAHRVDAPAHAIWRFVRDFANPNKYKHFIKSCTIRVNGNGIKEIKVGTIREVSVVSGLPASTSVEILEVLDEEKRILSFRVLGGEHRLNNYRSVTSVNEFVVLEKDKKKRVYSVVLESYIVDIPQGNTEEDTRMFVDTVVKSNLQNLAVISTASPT
Method: (§1) UV-Vis absorption measurements were performed on PYL3-Cy5.5, PYL3-BHQ3, and a 1:1 mixture of PYL3 containing PYL3-Cy5.5 and PYL3-BHQ3 (Shimadzu UV-Vis-NIR spectrophotometer, UV1700). […] Static light scattering (SLS) was used to determine the average molar mass (Malvern Zetasizer Nano S90 fitted with a 633 nm He—Ne laser). The mass of PYL3, PYL3-Cy5.5 and PYL3-BHQ3 was measured using Bruker UltraFlextreme MALDI TOF. Samples for MALDI-TOF measurement were prepared using a dried droplet method in a 2,5-Dihydroxyacetophenone (2,5-DHAP) matrix. The mass spectra were acquired with laser repetition frequency of 0.7-1 kHz.
Fluorescence from PYL3 and BHQ3-PYL3 homodimers in aqueous solution is weak, whereas fluorescence from PYL3-Cy5.5 homodimers (FIG. 2B) was as similarly intense as that of Cy5.5. […] If there is no change to the fluorescence intensity, then no self-quenching occurs. […] This quenching efficiency was used to estimate the quenching efficiency between Cy5.5 and BHQ3 in PYL3 heterodimers.

PYL3-Cy5.5 homodimers [2] = target: T1, PYL3-Cy5.5 homodimers; test: Static light scattering (SLS) average molecular mass of PYL3-Cy5.5 as a function of ABA concentration; format: biochemical
Method: as §1
Results from Static Light Scattering (SLS) measurements were used to estimate average molecular mass (FIG. 2D) based on molecular motion in solution, although the method is controversial when the molecular mass is on the order of a few thousand atomic mass units.

[3] = target: T2, PYL3-Cy5.5 and PYL3-BHQ3 dimers (hetero- and homodimers) (Arabidopsis thaliana, UniProt Q9SSM7); test: Static light scattering (SLS) average molar mass of PYL3-Cy5.5 / PYL3-BHQ3 mixture as a function of ABA concentration; format: biochemical; conditions: for PYLs in dimers (hetero- and homodimers, %) / PYLs in monomers (%): calculated using the SLS data
T2 construct: made in house; host or cells: E. coli BL21[DE3], pET28
T2 sequence (Q9SSM7 1-209) 1: T1 sequence (Q9SSM7 1-209)
T2 sequence (Q9SSM7 1-209) 2: T1 sequence (Q9SSM7 1-209)
Method: as §1

[4] = target: T3, PYL3-Cy5.5/PYL3-BHQ3 heterodimer mixture (Arabidopsis thaliana, UniProt Q9SSM7); test: Fluorescence of 1:1 PYL3-Cy5.5 / PYL3-BHQ3 mixture as a function of ABA concentration; format: biochemical; conditions: for Fluorescence from Cy5.5 in monomers / Sum of Cy5.5 fluorescence / Total fluorescence / Fluorescence from Cy5.5 in heterodimers / Fluorescence from Cy5.5 in homodimers: calculated; for Total fluorescence: BHQ3 concentration attenuation factor 0.27; for Fluorescence from Cy5.5 in heterodimers: FRET quenching factor 0.1; for Fluorescence from Cy5.5 in homodimers: self-quenching factor 0.8
T3 construct: made in house; host or cells: E. coli BL21[DE3], pET28
T3 sequence (Q9SSM7 1-209) 1: T1 sequence (Q9SSM7 1-209)
T3 sequence (Q9SSM7 1-209) 2: T1 sequence (Q9SSM7 1-209)
Method: This increase should arise from more dissociated PYL3-Cy5.5/PYL3-BHQ3 monomers, which lead to decreased FRET quenching of Cy5.5 by BHQ3 in the heterodimers and decreased self-quenching from Cy5.5 in PYL3-Cy5.5/PYL3-Cy5.5 homodimers as shown in FIG. 2C. Assuming BHQ3 in PYL3-BHQ3 behaves similarly as free BHQ3 in solutions, BHQ3 concentration dependent attenuation (FIG. 3D) is 64%, i.e., fluorescence is decreased to 36% of the signal of pure Cy5.5, at the BHQ3-PYL3 concentration of 4.0 μM used in the measurements. FRET quenching of Cy5.5 by BHQ3 in heterodimers is assumed to be 90%. […] In calculating the final fluorescence intensities (Total fluorescence) in Table 1, we employ the self-quenching, FRET quenching and BHQ3 concentration-dependent attenuation efficiency of 20%, 90% and 73.2%, respectively. The corresponding factors are 0.8, 0.1 and 0.27, respectively. The BHQ3 concentration dependent attenuation efficiency is slightly higher than 64% measured using a mixture of 4 μM of Cy5.5 and 4 μM BHQ3. The calculated final fluorescence intensities are within the standard deviations of the measured values.
For the data presented in Table 1, a self-quenching efficiency of 20% and BHQ3 concentration dependent quenching shown in FIG. 3C are used for calculation together with a calibrated fluorescence intensity of 79,653 cps from 4.65 μM Cy5.5. Units of fluorescence intensity are counts per second (cps). The values are calculated unless specified otherwise.^a Fluorescence intensity=amount of Cy5.5×calibrated unit fluorescence intensity.^b Fluorescence intensity=amount of Cy5.5×self-quenching factor (0.8)×calibrated unit fluorescence intensity.^c Fluorescence intensity=amount of Cy5.5×FRET quenching factor (0.1)×calibrated unit fluorescence intensity.^d Sum of a, b, and c.^e Total fluorescence=BHQ3 concentration attenuation factor (0.27)×d.

[5] = target: T4, homodimeric receptor PYL3 (Arabidopsis thaliana, UniProt Q9SSM7); conditions: read-out: equilibrium dissociation constant (Kd) of homodimeric receptor PYL3, cited from earlier work
T4 sequence (Q9SSM7 1-209): T1 sequence (Q9SSM7 1-209)

With `CC1=CC(=O)CC(C)(C)[C@@]1(O)/C=C/C(C)=C\C(=O)O` [ABA, abscisic acid] the “increase of fluorescence intensity of PYL3-Cy5.5” value (PYL3-Cy5.5 homodimers [1]; ABA increases from 0.1 μM to 1 mM, on average) was 20%, the “PYL3-Cy5.5 in the homodimer form” value (PYL3-Cy5.5 homodimers [2]; 0.1 μM ABA) was 94% and the “average molecular mass (SLS)” value (PYL3-Cy5.5 homodimers [2]; 0.1 μM ABA) was 50 kDa. For the same compound, the “PYL3-Cy5.5 in the monomeric form” value (PYL3-Cy5.5 homodimers [2]; 0.1 μM ABA, 51.6 kDa homodimers, 25.8 kDa monomers chosen) was 6%, the “PYL3-Cy5.5 in the homodimer form” value (PYL3-Cy5.5 homodimers [2]; 1 mM ABA) was 24% and the “PYL3-Cy5.5 in the monomeric form” value (PYL3-Cy5.5 homodimers [2]; 1 mM ABA) was 76%. For the same compound, the “average molecular mass (SLS)” value (PYL3-Cy5.5 homodimers [2]; 1 mM ABA) was 30 kDa, the “decrease of average molecular mass of the species in solution” value (PYL3-Cy5.5 homodimers [2]; ABA increases from 100 nM to 40 μM) was roughly 20% and the “further decrease of average molecular mass of the species in solution” value (PYL3-Cy5.5 homodimers [2]; ABA increases from 50 to 100 μM) was 20%. For the same compound, the “average molecule mass (SLS) of PYL3-Cy5.5 / PYL3-BHQ3 mixture” value ([3]; 100 nM ABA) was 50 kDa, the “Average molar mass (measured, amu)” value ([3]; ABA 0.1 μM) was 51110 amu and the “PYLs in dimers (hetero- and homodimers, %)” value ([3]; ABA 0.1 μM) was 98%. The “PYLs in monomers (%)” value ([3]; ABA 0.1 μM) was 2%, the “Average molar mass (measured, amu)” value ([3]; ABA 1.0 μM) was 47410 amu and the “PYLs in dimers (hetero- and homodimers, %)” value ([3]; ABA 1.0 μM) was 84%. For the same compound, the “PYLs in monomers (%)” value ([3]; ABA 1.0 μM) was 16%, the “Average molar mass (measured, amu)” value ([3]; ABA 40 μM) was 43330 amu and the “PYLs in dimers (hetero- and homodimers, %)” value ([3]; ABA 40 μM) was 68%. For the same compound, the “PYLs in monomers (%)” value ([3]; ABA 40 μM) was 32%, the “Average molar mass (measured, amu)” value ([3]; ABA 100 μM) was 34050 amu and the “PYLs in dimers (hetero- and homodimers, %)” value ([3]; ABA 100 μM) was 32%. The “PYLs in monomers (%)” value ([3]; ABA 100 μM) was 68%, the “Average molar mass (measured, amu)” value ([3]; ABA 1000 μM) was 31080 amu and the “PYLs in dimers (hetero- and homodimers, %)” value ([3]; ABA 1000 μM) was 20%. For the same compound, the “PYLs in monomers (%)” value ([3]; ABA 1000 μM) was 80%, the “ABA concentration the current design can detect” value [4] was 200 nM and the “Fluorescence (measured)” value ([4]; ABA 0.1 μM) was 3960 cps. For the same compound, the “Fluorescence from Cy5.5 in monomers” value ([4]; ABA 0.1 μM) was 630 cps, the “Sum of Cy5.5 fluorescence” value ([4]; ABA 0.1 μM) was 14553 cps and the Total fluorescence ([4]; ABA 0.1 μM) was 4045 cps. The “Fluorescence from Cy5.5 in heterodimers” value ([4]; ABA 0.1 μM) was 1575 cps, the “Fluorescence from Cy5.5 in homodimers” value ([4]; ABA 0.1 μM) was 12348 cps and the “Fluorescence (measured)” value ([4]; ABA 1.0 μM) was 4292 cps. For the same compound, the “Fluorescence from Cy5.5 in monomers” value ([4]; ABA 1.0 μM) was 5040 cps, the “Sum of Cy5.5 fluorescence” value ([4]; ABA 1.0 μM) was 16974 cps and the Total fluorescence ([4]; ABA 1.0 μM) was 4718 cps. The “Fluorescence from Cy5.5 in heterodimers” value ([4]; ABA 1.0 μM) was 1350 cps, the “Fluorescence from Cy5.5 in homodimers” value ([4]; ABA 1.0 μM) was 10584 cps and the “Fluorescence (measured)” value ([4]; ABA 40 μM) was 5301 cps. For the same compound, the “Fluorescence from Cy5.5 in monomers” value ([4]; ABA 40 μM) was 10080 cps, the “Sum of Cy5.5 fluorescence” value ([4]; ABA 40 μM) was 19741 cps and the Total fluorescence ([4]; ABA 40 μM) was 5488 cps. The “Fluorescence from Cy5.5 in heterodimers” value ([4]; ABA 40 μM) was 1092 cps, the “Fluorescence from Cy5.5 in homodimers” value ([4]; ABA 40 μM) was 8568 cps and the “Fluorescence (measured)” value ([4]; ABA 100 μM) was 6711 cps. For the same compound, the “Fluorescence from Cy5.5 in monomers” value ([4]; ABA 100 μM) was 21420 cps, the “Sum of Cy5.5 fluorescence” value ([4]; ABA 100 μM) was 25866 cps and the Total fluorescence ([4]; ABA 100 μM) was 7218 cps. The “Fluorescence from Cy5.5 in heterodimers” value ([4]; ABA 100 μM) was 514 cps, the “Fluorescence from Cy5.5 in homodimers” value ([4]; ABA 100 μM) was 4032 cps and the “Fluorescence (measured)” value ([4]; ABA 1000 μM) was 9494 cps. The “Fluorescence from Cy5.5 in monomers” value ([4]; ABA 1000 μM) was 25200 cps, the “Sum of Cy5.5 fluorescence” value ([4]; ABA 1000 μM) was 28035 cps and the Total fluorescence ([4]; ABA 1000 μM) was 7793 cps. For the same compound, the “Fluorescence from Cy5.5 in heterodimers” value ([4]; ABA 1000 μM) was 315 cps, the “Fluorescence from Cy5.5 in homodimers” value ([4]; ABA 1000 μM) was 2520 cps and the “change of fluorescence intensity of the mixture” value ([4]; ABA increased from less than one μM to one mM) was “more than doubled”. For the same compound, the “increase of fluorescence signal of the mixture” value ([4]; upon mixing with 100 μM ABA) was “more than 50%”.

In the case of “PYL3: Arabidopsis abscisic acid receptor PYL3 (SEQ ID NO:4), recombinant, forms homodimers that monomerize upon ABA binding”, the Kd ([5]; at saturating ABA concentrations) is listed as 52 µM and the Kd ([5]; without ABA) is listed as 7.76 µM.

With “PYL3-Cy5.5: PYL3 protein monomer chemically conjugated to the fluorescent molecule Cy5.5” the “self-quenching in the PYL3-Cy5.5 homodimers” value (PYL3-Cy5.5 homodimers [1]; absence of ABA, aqueous solution) was “at least 20%”.
